{"source": "paper PMC4986690", "about": "(Analytical chemistry, 2015)", "key": {"[1]": {"target": "human serum albumin (HSA) (Homo sapiens, UniProt P02768)", "sequence (P02768 25-609)": "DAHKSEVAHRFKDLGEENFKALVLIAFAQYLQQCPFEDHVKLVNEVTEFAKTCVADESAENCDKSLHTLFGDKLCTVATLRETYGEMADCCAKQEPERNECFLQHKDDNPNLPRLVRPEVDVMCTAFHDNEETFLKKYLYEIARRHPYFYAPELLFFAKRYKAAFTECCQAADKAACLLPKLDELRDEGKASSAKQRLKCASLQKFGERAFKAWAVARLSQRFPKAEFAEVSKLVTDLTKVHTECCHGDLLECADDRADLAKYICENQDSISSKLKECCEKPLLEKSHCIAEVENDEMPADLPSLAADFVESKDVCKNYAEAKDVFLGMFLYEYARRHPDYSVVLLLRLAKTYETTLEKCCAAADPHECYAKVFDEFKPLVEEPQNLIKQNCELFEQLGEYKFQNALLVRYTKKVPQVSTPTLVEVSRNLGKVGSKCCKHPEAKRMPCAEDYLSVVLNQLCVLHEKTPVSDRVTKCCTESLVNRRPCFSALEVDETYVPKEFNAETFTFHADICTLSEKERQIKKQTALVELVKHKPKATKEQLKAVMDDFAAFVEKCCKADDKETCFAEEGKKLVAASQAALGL", "test": "ultrafast affinity extraction, two-dimensional HSA microcolumns, UV […] nm", "type": "binding"}, "[2]": {"target": "T1, sex hormone binding globulin (SHBG) (Homo sapiens, UniProt P04278)", "T1 sequence (P04278 30-402)": "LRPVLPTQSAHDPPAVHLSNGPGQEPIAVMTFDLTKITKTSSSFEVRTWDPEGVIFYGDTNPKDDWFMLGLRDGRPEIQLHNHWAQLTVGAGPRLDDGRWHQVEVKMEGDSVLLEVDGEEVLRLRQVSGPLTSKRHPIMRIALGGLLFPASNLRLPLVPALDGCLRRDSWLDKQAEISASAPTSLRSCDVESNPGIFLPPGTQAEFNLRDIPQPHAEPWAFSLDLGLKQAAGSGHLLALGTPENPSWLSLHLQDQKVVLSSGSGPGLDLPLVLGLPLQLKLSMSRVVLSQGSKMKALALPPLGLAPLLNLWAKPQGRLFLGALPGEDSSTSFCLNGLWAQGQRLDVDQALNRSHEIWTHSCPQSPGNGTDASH"}}}
{"smiles": "C[C@]12CC[C@H]3[C@@H](CCC4=CC(=O)CC[C@@]43C)[C@@H]1CC[C@@H]2O", "note": "[testosterone]", "values": [{"measurement": "Kd", "setting": "[1]", "result": 31.2, "unit": "µM"}, {"measurement": "Kd", "setting": "[2]", "result": 0.000909, "unit": "µM"}]}
